Laboratory results as given in patent publication US20020155496A1, “Saturated and unsaturated abietane derivatives, derived conjugates and uses in a diagnostic composition, a reagent and a device” (priority 1998, published 2002).

Tested on: anti-abietic acid antibody
Experiment: Competition ELISA assay with natural hormones (crossreaction of anti-abietic acid antibody)
Type: binding, mouse
Settings: for inhibition / crossreaction in competition ELISA: increasing concentrations of hormone in 5 μg/ml anti-abietic acid antibody, abietic acid-ODN antigen phase, read at 492 nm
Experimental: The antigen phase was obtained as described in Example 11, and then increasing concentrations of hormone dissolved in a 5 μg/ml solution of anti-abietic acid antibody in PBS-Tween containing 10% by volume of horse serum are incubated for one hour at 37° C. After washes with PBS-Tween, an anti-mouse antibody antibody coupled to peroxidase, in solution in PBS-Tween-horse [lacuna] is incubated for one hour at 37° C. After washes, the enzymatic substrate, o-phenylenediamine, is added. The colorimetric reaction is stopped by adding 1N sulfuric acid. The intensity of the coloration is read at 492 nm on a bioMérieux Axia Micro-reader.

Structure (SMILES)	inhibition (concentration of 0.33 μmol/ml of hormone)	inhibition / crossreaction in competition ELISA
N[C@@H](Cc1cc(I)c(Oc2cc(I)c(O)c(I)c2)c(I)c1)C(=O)O [Example T4]	25%	crossreaction is observed
CC(=O)[C@H]1CC[C@H]2[C@@H]3CCC4=CC(=O)CC[C@]4(C)[C@H]3CC[C@]12C [progesterone]	–	no inhibition
C[C@]12CC[C@H]3[C@@H](CCC4=CC(=O)CC[C@@]43C)[C@@H]1CC[C@@H]2O [testosterone]	–	no inhibition
